Measured values as given in ChEMBL document CHEMBL6177923, “Novel rhodanine-thiazole hybrids as potential antidiabetic agents: a structure-based drug design approach” (RSC Med Chem, 2025).
Activity calls are given as the source filed them. The calls are words filed in the database; no cut-off is given here.

Legend:
[1] = target: Lysosomal alpha-glucosidase (Homo sapiens, UniProt P10253); assay: Inhibition of human lysosomal alpha-glucosidase preincubated for 10 mins followed by p-nitrophenyl-alpha-D glucopyranoside addition and measured after 30 mins by absorbance based analysis
[2] = test system: L929; assay: Cytotoxicity against mouse L929 cells by MTT assay; type: toxicity, cell-based
[3] = test system: HepG2; assay: Upregulation of PPAR-gamma expression in human HepG2 cells by RayBio PPAR-gamma TF activity assay; type: functional, cell-based; conditions: dose 6.25-100 µM

SMILES | IC50 [1] [µM] | inhibition ([1]; time 40.0 min) | Activity [2] | Activity [3]
O=C1NC(=S)S/C1=C\c1ccc(/C=N/Nc2nc(-c3ccccc3)cs2)cc1 | 55.2 | – | Non-toxic | –
Cc1ccc(-c2csc(N/N=C/c3ccc(/C=C4\SC(=S)NC4=O)cc3)n2)cc1 | 106 | – | Non-toxic | –
COc1ccc(-c2csc(N/N=C/c3ccc(/C=C4\SC(=S)NC4=O)cc3)n2)cc1 | 46 | – | Non-toxic | –
O=C1NC(=S)S/C1=C\c1ccc(/C=N/Nc2nc(-c3ccc(F)cc3)cs2)cc1 | 148 | – | Non-toxic | –
Cc1ccc(-c2csc(N/N=C/c3ccc(/C=C4\SC(=S)N(CC(=O)O)C4=O)cc3)n2)cc1 | – | inactive | Non-toxic | –
O=C(O)CN1C(=O)/C(=C/c2ccc(/C=N/Nc3nc(-c4ccc(F)cc4)cs3)cc2)SC1=S | 52 | – | Non-toxic | –
O=C(O)CN1C(=O)/C(=C/c2ccc(/C=N/Nc3nc(-c4ccccc4)cs3)cc2)SC1=S | 29.1 | – | Non-toxic | –
O=C1NC(=S)S/C1=C\c1ccc(/C=N/Nc2nc(-c3ccc(Cl)cc3)cs2)cc1 | 33.2 | – | Non-toxic | Dose-dependent-effect

Continued by falling IC50 [1], values first:

IC50 [1] [µM] | inhibition ([1]; time 40.0 min) | SMILES | Activity [2] | Activity [3]
63.2 | – | COc1ccc(-c2csc(N/N=C/c3ccc(/C=C4\SC(=S)N(CC(=O)O)C4=O)cc3)n2)cc1 | Non-toxic | –
62.1 | – | O=C(O)CN1C(=O)/C(=C/c2ccc(/C=N/Nc3nc(-c4ccc(Cl)cc4)cs3)cc2)SC1=S | Non-toxic | –
32.2 | – | O=C1NC(=S)S/C1=C\c1ccc(/C=N/Nc2nc(-c3ccc(Br)cc3)cs2)cc1 | Non-toxic | Dose-dependent-effect
24.2 | – | O=C(O)CN1C(=O)/C(=C/c2ccc(/C=N/Nc3nc(-c4ccc(Br)cc4)cs3)cc2)SC1=S | Non-toxic | –
